What was measured:
Details in all cases: 72 h
U2OS [1] = assay: drug sensitivity score (DSS) for viability; higher = more toxic; extreme values may be limits of the assay
Caco-2 [2] = assay: as above
Vero E6 [3] = assay: as above
Calu-3 [4] = assay: as above
U2OS [5] = assay: relative viability EC50 (midpoint between 100% and the lowest measured viability); higher = less toxic
Caco-2 [6] = assay: as above
Vero E6 [7] = assay: as above
Calu-3 [8] = assay: as above
U2OS [9] = assay: cell viability relative to DMSO; higher = less toxic
Caco-2 [10] = assay: as above
Vero E6 [11] = assay: as above
Calu-3 [12] = assay: as above
HepG2 [13] = assay: drug sensitivity score (DSS) for viability; higher = more toxic; extreme values may be limits of the assay
HepG2 [14] = assay: relative viability EC50 (midpoint between 100% and the lowest measured viability); higher = less toxic
HepG2 [15] = assay: cell viability relative to DMSO; higher = less toxic

| SMILES | drug sensitivity score (U2OS [1]) | drug sensitivity score (Caco-2 [2]) | drug sensitivity score (Vero E6 [3]) | drug sensitivity score (Calu-3 [4]) | relative viability EC50 (U2OS [5]) | relative viability EC50 (Caco-2 [6]) | relative viability EC50 (Vero E6 [7]) | relative viability EC50 (Calu-3 [8]) | cell viability (U2OS [9]; 1 nM) | cell viability (U2OS [9]; 10 nM) | cell viability (U2OS [9]; 100 nM) | cell viability (U2OS [9]; 1000 nM) | cell viability (U2OS [9]; 10000 nM) | cell viability (Caco-2 [10]; 1 nM) | cell viability (Caco-2 [10]; 10 nM) | cell viability (Caco-2 [10]; 100 nM) | cell viability (Caco-2 [10]; 1000 nM) | cell viability (Caco-2 [10]; 10000 nM) | cell viability (Vero E6 [11]; 1 nM) | cell viability (Vero E6 [11]; 10 nM) | cell viability (Vero E6 [11]; 100 nM) | cell viability (Vero E6 [11]; 1000 nM) | cell viability (Vero E6 [11]; 10000 nM) | cell viability (Calu-3 [12]; 1 nM) | cell viability (Calu-3 [12]; 10 nM) | cell viability (Calu-3 [12]; 100 nM) | cell viability (Calu-3 [12]; 1000 nM) | cell viability (Calu-3 [12]; 10000 nM) | drug sensitivity score (HepG2 [13]) | relative viability EC50 (HepG2 [14]) | cell viability (HepG2 [15]; 1 nM) | cell viability (HepG2 [15]; 10 nM) | cell viability (HepG2 [15]; 100 nM) | cell viability (HepG2 [15]; 1000 nM) | cell viability (HepG2 [15]; 10000 nM) |
| --- | --- | --- | --- | --- | --- | --- | --- | --- | --- | --- | --- | --- | --- | --- | --- | --- | --- | --- | --- | --- | --- | --- | --- | --- | --- | --- | --- | --- | --- | --- | --- | --- | --- | --- | --- |
| CCOC(=O)[C@H](C)C[C@@H](Cc1ccc(-c2ccccc2)cc1)NC(=O)CCC(=O)O [sacubitril] | 0 | 0 | 0 | 0 | > 10 µM | > 10 µM | > 10 µM | > 10 µM | 101% | 98.5% | 96% | 97.3% | 97.5% | 94.4% | 95.3% | 101% | 92.5% | 100% | 93.6% | 106% | 91.3% | 94.5% | 107% | 91.6% | 96.6% | 99.4% | 97.3% | 98.5% |  |  |  |  |  |  |  |
| COc1ccc(/C=C/C(=O)Nc2ccccc2C(=O)O)cc1OC [tranilast] | 0 | 0 |  | 0 | > 10 µM | > 10 µM |  | > 10 µM | 97.2% | 97.3% | 93.2% | 99.8% | 96% | 96.9% | 97% | 95.3% | 103% | 93.3% |  |  |  |  |  | 91.9% | 107% | 88.3% | 95.9% | 93.1% |  |  |  |  |  |  |  |
| Cc1cc(Nc2cc(N3CCN(C)CC3)nc(Sc3ccc(NC(=O)C4CC4)cc3)n2)n[nH]1 [tozasertib] | 4.4 | 1.1 | 1.6 | 2.2 |  | > 10 µM | > 10 µM |  | 105% | 101% | 101% | 86.2% | 54.9% | 97.1% | 91.1% | 96.2% | 97.7% | 77.9% | 107% | 107% | 100% | 84.2% | 85% | 110% | 97.6% | 96.8% | 89.1% | 70.9% | 9.1 | 448 nM | 103% | 99.2% | 70.4% | 72.4% | 36.4% |
| CCCCc1nc(C)c(CC(=S)N(C)C)c(=O)n1Cc1ccc(-c2ccccc2-c2nnn[nH]2)cc1 [fimasartan] | 0 | 0 | 0 | 0 | > 10 µM | > 10 µM | > 10 µM | > 10 µM | 107% | 96.6% | 102% | 101% | 104% | 94.2% | 89.4% | 90.8% | 96.9% | 113% | 98% | 95.8% | 93% | 101% | 106% | 94.9% | 99.5% | 128% | 94.4% | 115% |  |  |  |  |  |  |  |
| O=C(C1CC1)N1CC[C@@H](Cc2n[nH]c(=O)n2-c2ccc(-c3ccc4occc4c3)cc2)C1 | 0 | 1.7 | 0 |  | > 10 µM | > 10 µM | > 10 µM |  | 102% | 96.2% | 101% | 97.3% | 99.7% | 104% | 97.8% | 91.9% | 89.5% | 76.3% | 97.4% | 101% | 98.8% | 100% | 98.9% |  |  |  |  |  | 3.6 |  | 109% | 106% | 93.2% | 80.2% | 71.2% |
| COc1cccc(C=NCCN=Cc2cccc(OC)c2[O-])c1[O-].[Cl-].[Mn+3] [EUK-134] | 0 | 0 | 0 | 0 | > 10 µM | > 10 µM | > 10 µM | > 10 µM | 101% | 96.6% | 107% | 99.3% | 99% | 94.7% | 89% | 91.5% | 92% | 85.6% | 98.4% | 102% | 99.3% | 105% | 96% | 110% | 87.9% | 102% | 94% | 99.3% | 1.1 |  | 95% | 109% | 99.5% | 101% | 72.3% |

Reference: the supplement of paper PMC13380429
